Target: T1, FXR ligand binding domain (GST-FXR LBD fusion protein, human FXR aa 193-473) (Homo sapiens, UniProt Q96RI1)
T1 construct: made in house; host or cells: E. coli BL21(pLysS)
T1 sequence (Q96RI1 193-472 isoform Q96RI1-2 limits assumed): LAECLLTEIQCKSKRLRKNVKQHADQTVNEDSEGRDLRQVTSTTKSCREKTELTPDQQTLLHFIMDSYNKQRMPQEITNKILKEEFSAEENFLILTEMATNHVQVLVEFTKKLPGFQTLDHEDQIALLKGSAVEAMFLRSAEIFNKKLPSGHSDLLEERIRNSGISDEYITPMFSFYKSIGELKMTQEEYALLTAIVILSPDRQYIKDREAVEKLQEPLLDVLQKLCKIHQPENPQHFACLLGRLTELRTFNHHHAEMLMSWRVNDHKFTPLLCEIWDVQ
Assay: Radioligand binding assay (radioligand displacement, scintillation proximity)
Settings: 40 nM GST-FXR LBD on SPA beads, radioligand 2,N-dicyclohexyl-2-[2-(2,4 dimethoxy-phenyl)-benzoimidazol-1-yl]-acetamide, RT 30 minutes
Description: The following tests were carried out in order to determine the activity of the compounds of formula I. Background information on the binding assay can be found in: Nichols J S et al. “Development of a scintillation proximity assay for peroxisome proliferator-activated receptor gamma ligand binding domain”, (1998) Anal. Biochem. 257: 112-119.
Bacterial and mammalian expression vectors were constructed to produce glutathione-s-transferase (GST) and Gal4 DNA binding domain (GAL) proteins fused to the ligand binding domain (LBD) of human FXR (aa 193-473). To accomplish this, the portions of the sequences encoding the FXR LBD were amplified by polymerase chain reaction (PCR) from a full-length clone by PCR and then subcloned into the plasmid vectors. The final clone was verified by DNA sequence analysis.
The induction, expression, and subsequent purification of GST-LBD fusion protein was performed in E. coli strain BL21(pLysS) cells by standard methods (Current Protocols in Molecular Biology, Wiley Press, ed. Ausubel et al).
Radioligand Binding Assay
Binding of test substances to the FXR ligand binding domain was assessed in a radioligand displacement assay. The assay was performed in a buffer consisting of 50 mM Hepes, pH 7.4, 10 mM NaCl, 5 mM MgCl2. For each reaction well in a 96-well plate, 40 nM of GST-FXR LBD fusion protein was bound to 10 μg glutathione ytrium silicate SPA beads (Pharmacia Amersham) in a final volume of 50 μl by shaking. A radioligand (e.g. 40 nM) of 2,N-dicyclohexyl-2-[2-(2,4 dimethoxy-phenyl)-benzoimidazol-1-yl]-acetamide) was added, and the reaction incubated at RT for 30 minutes in the presence of test compounds followed by scintillation proximity counting. All binding assays were performed in 96-well plates and the amount of bound ligand was measured on a Packard TopCount using OptiPlates (Packard). Dose response curves were performed within a range of concentration from 6×10^−9 M to 2.5×10^−5 M.

SMILES | IC50 [nM]
O=C(NC1CCCCC1)N(c1c2ccccc2nn1-c1ccccc1)C1CCCCC1 [Example 1, 1,3-Dicyclohexyl-1-(2-phenyl-2H-indazol-3-yl)-urea] | 40
CCCCN(C(=O)NC1CCCCC1)c1c2ccccc2nn1-c1ccc(Cl)cc1 [Example 4, 1-Butyl-1-[2-(4-chloro-phenyl)-2H-indazol-3-yl]-3-cyclohexyl-urea] | 180
O=C(NC1CCCCC1)N(c1c2ccccc2nn1-c1ccc(Cl)cc1)C1CCOCC1 [Example 10, 1-[2-(4-Chloro-phenyl)-2H-indazol-3-yl]-3-cyclohexyl-1-(tetrahydro-pyran-4-yl)-urea] | 660
O=C(NC1CCCCC1)N(c1c2ccccc2nn1-c1ccc(Cl)cc1)C1CCCCC1 [Example 11, 1-[2-(4-Chloro-phenyl)-2H-indazol-3-yl]-1,3-dicyclohexyl-urea] | 20
O=C(NC1CCCCC1)N(c1ccccc1)c1c2ccccc2nn1-c1ccc(Cl)cc1 [Example 15, 1-[2-(4-Chloro-phenyl)-2H-indazol-3-yl]-3-cyclohexyl-1-phenyl-urea] | 460
COCCN(C(=O)NC1CCCCC1)c1c2ccccc2nn1-c1ccc(Cl)cc1 [Example 17, 1-[2-(4-Chloro-phenyl)-2H-indazol-3-yl]-3-cyclohexyl-1-(2-methoxy-ethyl)-urea] | 2330
CCOc1cccc(N(C(=O)NC2CCCCC2)c2c3ccccc3nn2-c2ccc(Cl)cc2)c1 [Example 25, 1-[2-(4-Chloro-phenyl)-2H-indazol-3-yl]-3-cyclohexyl-1-(3-ethoxy-phenyl)-urea] | 790
O=C(NC1CCCCC1)N(c1cccc(Cl)c1)c1c2ccc(F)cc2nn1-c1cccc(Cl)c1 [Example 35, 1-(3-Chloro-phenyl)-1-[2-(3-chloro-phenyl)-6-fluoro-2H-indazol-3-yl]-3-cyclohexyl-urea] | 20
O=C(OC1CCCCC1)N(c1c2ccccc2nn1-c1ccc(Cl)cc1)C1CCCCC1 [Example 37, [2-(4-Chloro-phenyl)-2H-indazol-3-yl]-cyclohexyl-carbamic acid cyclohexyl ester] | 60
O=C(NC1CCCCC1)N(c1c2ccc(F)cc2nn1-c1ccc(Cl)cc1)C1CCCCC1 [Example 40, 1-[2-(4-Chloro-phenyl)-6-fluoro-2H-indazol-3-yl]-1,3-dicyclohexyl-urea] | 20
O=C(NC1CCCCC1)N(c1cccc(Cl)c1)c1c2cc(F)c(F)cc2nn1-c1cccc(Cl)c1 [Example 43, 1-(3-Chloro-phenyl)-1-[2-(3-chloro-phenyl)-5,6-difluoro-2H-indazol-3-yl]-3-cyclohexyl-urea] | 80
O=C(NC1CCCCC1)N(c1cccc(Cl)c1)c1c2ccc(F)cc2nn1-c1ccc(Cl)cc1 [Example 44, 1-(3-Chloro-phenyl)-1-[2-(4-chloro-phenyl)-6-fluoro-2H-indazol-3-yl]-3-cyclohexyl-urea] | 100

Next, values leading:

IC50 [nM] | SMILES
830 | O=C(Nc1ccccc1F)N(c1c2ccccc2nn1-c1ccccc1)C1CCCCC1 [Example 3, 1-Cyclohexyl-3-(2-fluoro-phenyl)-1-(2-phenyl-2H-indazol-3-yl)-urea]
1080 | O=C(O)c1ccc(NC(=O)N(Cc2ccccc2)c2c3ccccc3nn2-c2ccc(Cl)cc2)c(Cl)c1 [Example 9, 4-{3-Benzyl-3-[2-(4-chloro-phenyl)-2H-indazol-3-yl]-ureido}-3-chloro-benzoic acid]
790 | CCCCN(C(=O)Nc1ccc(C(=O)O)cc1Cl)c1c2ccccc2nn1-c1ccc(Cl)cc1 [Example 12, 4-{3-Butyl-3-[2-(4-chloro-phenyl)-2H-indazol-3-yl]-ureido}-3-chloro-benzoic acid]
400 | O=C(O)c1ccc(NC(=O)N(c2c3cc(F)c(F)cc3nn2-c2ccc(Cl)cc2)C2CCCCC2)c(Cl)c1 [Example 16, 3-Chloro-4-{3-[2-(4-chloro-phenyl)-5,6-difluoro-2H-indazol-3-yl]-3-cyclohexyl-ureido}-benzoic acid]
20 | O=C(NC1CCCCC1)N(c1cccc(Cl)c1)c1c2ccccc2nn1-c1ccc(Cl)cc1 [Example 19, 1-(3-Chloro-phenyl)-1-[2-(4-chloro-phenyl)-2H-indazol-3-yl]-3-cyclohexyl-urea]
720 | O=C(O)Cc1ccc(NC(=O)N(c2c3ccccc3nn2-c2ccc(Cl)cc2)C2CCCCC2)c(Cl)c1 [Example 21, (3-Chloro-4-{3-[2-(4-chloro-phenyl)-2H-indazol-3-yl]-3-cyclohexyl-ureido}-phenyl)-acetic acid]
340 | O=C(O)CCc1ccc(NC(=O)N(c2c3ccccc3nn2-c2ccc(Cl)cc2)C2CCCCC2)c(F)c1 [Example 26, 3-(4-{3-[2-(4-Chloro-phenyl)-2H-indazol-3-yl]-3-cyclohexyl-ureido}-3-fluoro-phenyl)-propionic acid]
70 | O=C(NC1CCCCC1)N(c1ccc(F)c(Cl)c1)c1c2ccccc2nn1-c1ccc(Cl)cc1 [Example 28, 1-(3-Chloro-4-fluoro-phenyl)-1-[2-(4-chloro-phenyl)-2H-indazol-3-yl]-3-cyclohexyl-urea]
4310 | O=C(O)c1ccc(NC(=O)N(c2c3ccccc3nn2-c2ccc(Cl)cc2)C2CCC2)c(Cl)c1 [Example 31, 3-Chloro-4-{3-[2-(4-chloro-phenyl)-2H-indazol-3-yl]-3-cyclobutyl-ureido}-benzoic acid]
3350 | CC(C)(C(=O)O)c1ccc(NC(=O)N(c2c3ccccc3nn2-c2ccc(Cl)cc2)C2CCCCC2)c(F)c1 [Example 32, 2-(4-{3-[2-(4-Chloro-phenyl)-2H-indazol-3-yl]-3-cyclohexyl-ureido}-3-fluoro-phenyl)-2-methyl-propionic acid]
240 | O=C(NC1CCCC1)N(c1c2ccccc2nn1-c1ccc(Cl)cc1)C1CCCC1 [Example 38, 1-[2-(4-Chloro-phenyl)-2H-indazol-3-yl]-1,3-dicyclopentyl-urea]
300 | O=C(N[C@H]1CC[C@H](O)CC1)N(c1cccc(Cl)c1)c1c2ccccc2nn1-c1ccc(Cl)cc1 [Example 41, trans-1-(3-Chloro-phenyl)-1-[2-(4-chloro-phenyl)-2H-indazol-3-yl]-3-(4-hydroxy-cyclohexyl)-urea]
